How the values were obtained:
Rheb = target: T1, Rheb (Homo sapiens, UniProt Q15382); assay: Rheb GTP Binding Domain Inhibition Assay; conditions: read-out: Rheb: % inh.
T1 construct: made in house
How it was run: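 His-tagged cdc42 or Rheb (10–30 μg/mL) bound to nickel plates, then exposed to compound (20 μM, or serial dilutions for IC50) in 1% DMSO for 3 h at room temperature, ±Sos during final hour. Cy3- or Cy5-GTP (100 nM) added for 45 min; bound labelled GTP read by fluorescence after washes.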

MAPK p38 phosphorylation = assay: MAPK p38 Activation Assay (western blot), Panc-1; format: cell-based, human; conditions: at 10 μM, Panc-1 pancreatic cancer cell line; starred symbols = activation
How it was run: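 Panc-1 cells (KRas G12D) were treated with compound for 6 h at 37 °C, at 10 μM or as serial dilutions for IC50, with 0.3% DMSO. Method 1 used overnight serum-starved cells (0.5% FBS) stimulated with 1.5 ng/ml EGF for 15 min; Method 2 used unstimulated cells in 10% FBS. Phospho-p38 (Thr180/Tyr182) was detected by western blot.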

JNK phosphorylation = assay: JNK Activation Assay (western blot), Panc-1; format: cell-based, human; conditions: at 10 μM, Panc-1 pancreatic cancer cell line; starred symbols = activation
How it was run: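 KRas G12C Panc-1 cells treated 6 h at 37 °C with compound at 10 μM (0.3% DMSO), or serial dilutions for IC50. In Method 1 cells were serum-starved overnight (0.5% FBS) then stimulated with 1.5 ng/ml EGF for 15 min; Method 2 used 10% FBS without stimulation. Phospho-JNK (Thr183/Tyr185) measured by western blot.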

T1 sequence (Q15382 whole entry, the tested form may be a part): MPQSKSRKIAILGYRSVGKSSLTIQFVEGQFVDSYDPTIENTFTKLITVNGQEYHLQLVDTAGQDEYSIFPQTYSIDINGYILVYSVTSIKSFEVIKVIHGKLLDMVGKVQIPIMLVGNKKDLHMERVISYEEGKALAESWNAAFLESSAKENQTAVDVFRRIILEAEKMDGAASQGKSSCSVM

| SMILES | inhibition at 20 µM (Rheb) [%] | % inh of MAPK p38 in Panc-1 (MAPK p38 phosphorylation) | % inh of JNK in Panc-1 (JNK phosphorylation) |
| --- | --- | --- | --- |
| COc1ccnc(Nc2nc(-c3nccn3C)nn3cc(-c4ccn(C(C)C)n4)c(C)c23)c1 [Compound 58, 6-(1-Isopropyl-1H-pyrazol-3-yl)-N-(4-methoxypyridin-2-yl)-5-methyl-2-(1-methyl-1H-imidazol-2-yl)pyrrolo[2,1-f][1,2,4]triazin-4-amine] | 76 to 100 | G* (G* = 75-99% activation) | H* (H* ≥ 100% activation) |
| COc1ccc(Nc2nc(-c3nccn3C)nn3cc(-c4ccn(C(C)C)n4)c(C)c23)cn1 [Compound 71, 6-(1-Isopropyl-1H-pyrazol-3-yl)-N-(6-methoxypyridin-3-yl)-5-methyl-2-(1-methyl-1H-imidazol-2-yl)pyrrolo[2,1-f][1,2,4]triazin-4-amine] | 1 to 25 | H* (H* ≥ 100% activation) | H* (H* ≥ 100% activation) |
| CCn1ccc(-c2cn3nc(-c4nccn4C)nc(Nc4cc(OC)ncn4)c3c2C)n1 [Compound 64, 6-(1-Ethyl-1H-pyrazol-3-yl)-N-(6-methoxypyrimidin-4-yl)-5-methyl-2-(1-methyl-1H-imidazol-2-yl)pyrrolo[2,1-f][1,2,4]triazin-4-amine] | 50 to 75 | H* (H* ≥ 100% activation) | H* (H* ≥ 100% activation) |
| COc1cccc(-c2cn3nc(-c4nccn4C)nc(N[C@H]4C[C@H](OC)C4)c3c2-c2ccccn2)c1F [Compound 45, 6-(2-Fluoro-3-methoxyphenyl)-N-((1r,3r)-3-methoxycyclobutyl)-2-(1-methyl-1H-imidazol-2-yl)-5-(pyridin-2-yl)pyrrolo[2,1-f][1,2,4]triazin-4-amine] | 50 to 75 | H* (H* ≥ 100% activation) | H* (H* ≥ 100% activation) |
| Cc1c(-c2ccn(C(C)C)n2)cn2nc(-c3nccn3C)nc(Nc3ccn(C(C)C)n3)c12 [Compound 72, N,6-bis(1-Isopropyl-1H-pyrazol-3-yl)-5-methyl-2-(1-methyl-1H-imidazol-2-yl)pyrrolo[2,1-f][1,2,4]triazin-4-amine] | 50 to 75 | H* (H* ≥ 100% activation) | H* (H* ≥ 100% activation) |
| COc1cnc(Nc2nc(-c3nccn3C)nn3cc(-c4ccn(C(C)C)n4)c(C)c23)nc1 [Compound 56, 6-(1-Isopropyl-1H-pyrazol-3-yl)-N-(5-methoxypyrimidin-2-yl)-5-methyl-2-(1-methyl-1H-imidazol-2-yl)pyrrolo[2,1-f][1,2,4]triazin-4-amine] | 50 to 75 | H* (H* ≥ 100% activation) | H* (H* ≥ 100% activation) |
| COCCO[C@H]1C[C@H](Nc2nc(-c3nccn3C)nn3cc(-c4cccc(OC)c4F)c(-c4ccccc4)c23)C1 [Compound 44, 6-(2-Fluoro-3-methoxyphenyl)-N-((1r,3r)-3-(2-methoxyethoxy)cyclobutyl)-2-(1-methyl-1H-imidazol-2-yl)-5-phenylpyrrolo[2,1-f][1,2,4]triazin-4-amine] | 26 to 49 | H* (H* ≥ 100% activation) | H* (H* ≥ 100% activation) |
| COc1cccc(-c2cn3nc(-c4nccn4C)nc(N[C@H]4C[C@H](OC)C4)c3c2-c2ccccc2)c1F [Compound 42, 6-(2-Fluoro-3-methoxyphenyl)-N-((1r,3r)-3-methoxycyclobutyl)-2-(1-methyl-1H-imidazol-2-yl)-5-phenylpyrrolo[2,1-f][1,2,4]triazin-4-amine] | 1 to 25 | H* (H* ≥ 100% activation) | H* (H* ≥ 100% activation) |
| Cc1c(-c2ccn(C(C)C)n2)cn2nc(-c3nccn3C)nc(Nc3nnc(C4CC4)o3)c12 [Compound 67, 5-Cyclopropyl-N-(6-(1-isopropyl-1H-pyrazol-3-yl)-5-methyl-2-(1-methyl-1H-imidazol-2-yl)pyrrolo[2,1-f][1,2,4]triazin-4-yl)-1,3,4-oxadiazol-2-amine] | 50 to 75 | H* (H* ≥ 100% activation) | H* (H* ≥ 100% activation) |
| Cc1c(-c2ccn(C(C)C)n2)cn2nc(-c3nccn3C)nc(Nc3ccncc3)c12 [Compound 52, 6-(1-Isopropyl-1H-pyrazol-3-yl)-5-methyl-2-(1-methyl-1H-imidazol-2-yl)-N-(pyridin-4-yl)pyrrolo[2,1-f][1,2,4]triazin-4-amine] | 0 | F* (F* = 31-74% activation) | 0 (0 = 0% inhibition) |
| Cc1c(-c2ccn(C(C)C)n2)cn2nc(-c3nccn3C)nc(Nc3ccn(C)n3)c12 [Compound 61, 6-(1-Isopropyl-1H-pyrazol-3-yl)-5-methyl-2-(1-methyl-1H-imidazol-2-yl)-N-(1-methyl-1H-pyrazol-3-yl)pyrrolo[2,1-f][1,2,4]triazin-4-amine] | 76 to 100 | H* (H* ≥ 100% activation) | H* (H* ≥ 100% activation) |
| Cc1c(-c2ccn(C(C)C)n2)cn2nc(-c3nccn3C)nc(Nc3cc(C4CC4)no3)c12 [Compound 69, 3-Cyclopropyl-N-(6-(1-isopropyl-1H-pyrazol-3-yl)-5-methyl-2-(1-methyl-1H-imidazol-2-yl)pyrrolo[2,1-f][1,2,4]triazin-4-yl)isoxazol-5-amine] | 1 to 25 | H* (H* ≥ 100% activation) | H* (H* ≥ 100% activation) |
| COc1ccnc(Nc2nc(-c3nccn3C)nn3cc(-c4ccn(C(C)C)n4)c(C)c23)n1 [Compound 53, 6-(1-Isopropyl-1H-pyrazol-3-yl)-N-(4-methoxypyrimidin-2-yl)-5-methyl-2-(1-methyl-1H-imidazol-2-yl)pyrrolo[2,1-f][1,2,4]triazin-4-amine] | 76 to 100 | H* (H* ≥ 100% activation) | H* (H* ≥ 100% activation) |

Source: patent publication US12459951B2, “Compounds that interact with RAS superfamily proteins for treatment of cancers, inflammatory diseases, rasopathies, and fibrotic disease” (SHY Therapeutics, LLC, priority 2022, dated 2025)
